Measurements as given in patent publication US20040028752A1, “Topical pharmaceutical composition comprising a cholinergic agent or a calcium channel blocker” (S.L.A. Pharma AG., priority 2002, published 2004).
Where two headings read alike, the source gives them in different places.

Columns and labels:
[1] = test system: internal anal resting pressure; settings: topical use; cited from earlier work
chronic anal fissures [2] = assay: Open study of diltiazem cream in patients with anal fissures; assay type: in vivo, human
Description: 2% diltiazem cream from example 2 was applied to the anus three times daily for 8 weeks to treat patients suffering from chronic anal fissures (in an uncontrolled, open, pilot study). To date, 7 patients were studied and followed up between 2 to 5 weeks. 5 patients have had complete resolution of symptoms, of whom 3 have complete and 2 partial healing of the fissure. In four of these 5 patients there has been a reduction of the maximum resting anal sphincter pressure to within normal limits. The last patient, though symptom free, continues to have a high anal resting pressure.
2 patients have only had two weeks of treatment and one is symptom free after this short period, whilst the other still has occasional pain. It is too early to comment on healing of fissures in these two patients.

[3] = test system: internal anal resting pressure; settings: given orally at 60 mg; cited from earlier work
[4] = test system: resting anal sphincter pressure; assay: Diltiazem dose ranging study on healthy volunteers, eight channel water perfused manometer; assay type: in vivo, human
Description: Concentrations of diltiazem cream used were 0.1%, 0.5%, 1%, 2%, 5% and 10%. […] The maximal effect, at which the mean resting anal pressure was lowered by 28% (P<0.0001), was produced by 2% w/w cream (See FIG. 1).

[5] = test system: mean anal resting pressure; assay: Study of example 4 repeated using oral diltiazem
[6] = test system: resting anal sphincter pressure; assay: Bethanechol dose ranging study in healthy volunteers; assay type: in vivo, human
Description: Bethanechol cream at concentrations of 0.05%, 0.1%, 0.5% and 1% w/w bethanechol were made up in accordance with example 1. The compositions were studied following initial experimentation in an open way to determine a clinically effective dose range. […] Maximal effect was produced by application of 0.1% bethanechol and higher concentrations of the cream produced no additional effect. At 0.1% w/w bethanechol, the mean resting pressure was reduced from about 110 cm to about 85 cm H2O (about 25% decrease). A typical ‘one inch’ application of this cream from the tube is equivalent to 400 mcg of bethanechol.

chronic anal fissures [7] = assay: Open study of bethanechol cream in patients with chronic anal fissures; assay type: in vivo, human; settings: 0.1% cream three times daily
Description: The 0.1% bethanechol cream of example 3 was applied to the anus three times daily for an eight week course to treat patients suffering from chronic anal fissures (in an uncontrolled, open, pilot study). To date, 6 patients have been treated and followed up for 3 to 5 weeks. Four patients have had complete resolution of symptoms, of whom 3 have complete and 1 partial healing of the fissure. In all of these 4 patients there has been a reduction of the maximum resting anal sphincter pressure to within normal limits. One patient discovered they were pregnant and treatment was discontinued. The last patient has had no relief and remains symptomatic after 4 weeks' follow up.

[8] = test system: maximum resting pressures in the anal canal; settings: after 1 hour, patients with anal fissures; cited from earlier work
[9] = 2% cream three times daily, among the 5 patients with complete resolution of symptoms
[10] = among the four patients with complete resolution of symptoms

O=[N+]([O-])OCC(CO[N+](=O)[O-])O[N+](=O)[O-] [glyceryl trinitrate]
effect on internal anal resting pressure [1]: reduces the internal anal resting pressure

COc1ccc([C@@H]2Sc3ccccc3N(CCN(C)C)C(=O)[C@@H]2OC(C)=O)cc1 [diltiazem]
patients with complete resolution of symptoms (chronic anal fissures [2]; 2% cream three times daily, 7 patients studied, follow up 2 to 5 weeks): 5 patients
patients with complete healing of the fissure (chronic anal fissures [2]; [9]): 3 patients
patients with partial healing of the fissure (chronic anal fissures [2]; [9]): 2 patients
patients with reduction of the maximum resting anal sphincter pressure to within normal limits (chronic anal fissures [2]; 2% cream three times daily, of the 5 symptom-free patients): four
patients symptom free after two weeks of treatment (chronic anal fissures [2]; 2% cream, of the 2 patients with only two weeks of treatment): one
effect on internal anal resting pressure [3]: reduce internal anal resting pressure
mean resting anal pressure lowered by ([4]; 2% w/w cream, topical to anus, ten healthy volunteers, maximal effect, P<0.0001): 28%
effect on resting anal sphincter pressure ([4]; topical cream 0.1%, 0.5%, 1%, 2%, 5% and 10%): dose dependent reduction
effect of a single application sustained for ([4]; topical diltiazem, healthy volunteers (FIG. 2: 1% w/w gel)): 3 to 5 h
effect on mean anal resting pressure ([5]; 60 mg oral once a day): no notable effect
patients who noticed postural dizziness ([5]; 60 mg oral twice a day): two
mean anal resting pressure reduced by ([5]; 60 mg oral twice a day, P=0.008): 17%

CC(C[N+](C)(C)C)OC(N)=O (centres unmarked) [bethanechol]
decrease of mean resting pressure ([6]; 0.1% w/w bethanechol topical, healthy volunteers): about 25%
mean resting pressure after application ([6]; 0.1% w/w bethanechol topical, healthy volunteers, reduced from about 110 cm): about 85 cm H2O
effect on resting anal sphincter pressure ([6]; topical 0.05%, 0.1%, 0.5% and 1% w/w): dose dependent reduction
effect of a single application sustained from ([6]; topical bethanechol, healthy volunteers (FIG. 4: 0.1% w/w gel)): 3 to 5 h
concentration producing the maximal effect on resting anal sphincter pressure ([6]; topical, 0.05%, 0.1%, 0.5% and 1% w/w tested, higher concentrations no additional effect): 0.1%
patients with complete resolution of symptoms (chronic anal fissures [7]; 6 patients treated, follow up 3 to 5 weeks): Four
patients with complete healing of the fissure (chronic anal fissures [7]; [10]): 3 patients
patients with partial healing of the fissure (chronic anal fissures [7]; [10]): 1 patients
patients with reduction of the maximum resting anal sphincter pressure to within normal limits (chronic anal fissures [7]; of the 4 symptom-free patients): 4 patients

O=C(NC1CCN(CCc2c[nH]c3ccccc23)CC1)c1ccccc1 [indoramin]
reduction of maximum resting pressures in the anal canal [8]: 35.8%
